Assay: mn = molality of the nth substance listed, in mol/kg
Conditions: Liquid, Capillary tube (Ostwald / Ubbelohde) method

O=S(=O)([O-])[O-].[Li+].[Li+] [lithium sulfate] + O
viscosity [mPa·s]
Conditions	10000 kPa	20000 kPa	30000 kPa
415.76 K, m1 = 0.885	–	–	0.2944
417.42 K, m1 = 0.28	0.2175	0.2199	0.2227
418.18 K, m1 = 0.56	0.2443	0.2469	0.2497
420.67 K, m1 = 0.1	0.198	0.201	0.2031
423.55 K, m1 = 0.28	0.208	0.2106	0.2133
424.05 K, m1 = 0.885	0.2687	0.2721	0.2756
424.55 K, m1 = 0.56	0.233	0.2359	0.239
430.26 K, m1 = 0.885	0.2564	0.2601	0.264
430.73 K, m1 = 0.28	0.1975	0.1999	0.2024
431.72 K, m1 = 0.1	0.1829	0.1849	0.1871
431.83 K, m1 = 0.56	0.2212	0.2231	0.2251
437.24 K, m1 = 0.56	0.213	0.2154	0.2185
439.37 K, m1 = 0.885	0.2402	0.244	0.2479
440.04 K, m1 = 0.28	0.1858	0.1885	0.191
446.35 K, m1 = 0.56	0.2	0.203	0.206
449.15 K, m1 = 0.885	0.2248	0.2283	0.2318
449.35 K, m1 = 0.28	0.175	0.1776	0.1803
449.55 K, m1 = 0.1	0.163	0.1654	0.168
452.17 K, m1 = 0.56	0.1927	0.1957	0.1984
458.12 K, m1 = 0.885	0.2109	0.2139	0.2179
458.17 K, m1 = 0.28	0.1658	0.1682	0.1704
459.12 K, m1 = 0.56	0.1843	0.1878	0.19
459.89 K, m1 = 0.1	0.1532	0.1553	0.1577
462.13 K, m1 = 0.28	0.162	0.1649	0.1674
466.79 K, m1 = 0.885	0.2003	0.2038	0.2071
468.13 K, m1 = 0.56	0.175	0.1787	0.1813
468.74 K, m1 = 0.28	0.1558	0.1582	0.1612
468.97 K, m1 = 0.1	0.1454	0.1477	0.15
473.25 K, m1 = 0.1	0.1421	0.1467	0.149
475.55 K, m1 = 0.28	0.15	0.1528	0.1555
476.95 K, m1 = 0.885	0.1885	0.192	0.1956
479.55 K, m1 = 0.56	0.1637	0.1668	0.1699
482.35 K, m1 = 0.1	0.1352	0.1378	0.1404
485.13 K, m1 = 0.885	0.1797	0.1835	0.1871
485.17 K, m1 = 0.28	0.1424	0.1452	0.1475
490.35 K, m1 = 0.1	0.1297	0.1322	0.1354
490.76 K, m1 = 0.56	0.1538	0.1567	0.1595
492.49 K, m1 = 0.885	0.1725	0.1761	0.179
495.14 K, m1 = 0.28	0.1352	0.1377	0.14
500.43 K, m1 = 0.885	0.1653	0.1688	0.1722
501.3 K, m1 = 0.1	0.1228	0.125	0.1275
509.17 K, m1 = 0.885	0.158	0.1614	0.1649
510.12 K, m1 = 0.56	0.1391	0.142	0.1455
510.93 K, m1 = 0.1	0.1172	0.1199	0.1235
515.27 K, m1 = 0.28	0.1224	0.1247	0.1271
517.75 K, m1 = 0.885	0.1513	0.155	0.1586
521.75 K, m1 = 0.1	0.1115	0.1143	0.117
522.75 K, m1 = 0.56	0.1308	0.1341	0.1373
525.95 K, m1 = 0.28	0.1166	0.1196	0.1225
526.12 K, m1 = 0.885	0.1453	0.1491	0.1527
530.53 K, m1 = 0.1	0.1072	0.1097	0.1122
532.85 K, m1 = 0.56	0.125	0.1281	0.131
538.24 K, m1 = 0.885	0.1372	0.1408	0.1443
540.08 K, m1 = 0.28	0.1096	0.1125	0.1156
541.04 K, m1 = 0.1	0.1024	0.1052	0.1087
547.35 K, m1 = 0.1	0.0998	0.1027	0.1055
550.72 K, m1 = 0.885	0.1297	0.1335	0.1372
551.24 K, m1 = 0.56	0.1151	0.1184	0.1214
560.12 K, m1 = 0.28	0.1011	0.104	0.1075
560.18 K, m1 = 0.885	0.1246	0.1282	0.1318
560.43 K, m1 = 0.1	0.0948	0.0977	0.0999
560.72 K, m1 = 0.56	0.1106	0.1132	0.115
569.15 K, m1 = 0.1	0.0917	0.0945	0.0977
572.05 K, m1 = 0.56	0.1056	0.1092	0.1126
573.45 K, m1 = 0.28	0.0962	0.0995	0.1025
574.55 K, m1 = 0.885	0.1176	0.1217	0.1255
574.75 K, m1 = 0.1	0.0897	0.0928	0.0957

Source: the NIST ThermoML archive (doi:10.1021/je030177j)
